# Patent publication US20110045101A1, “FUNGICIDAL SUBSTITUTED AZOLES” (E.I. Du Pont De Nemours and Company, priority 2009, published 2011)
# Marks after values point to notes of the source that are not given here.
# Tests used:
# Type in all cases: in vivo
# Settings in all cases: 100 = 100% disease control
# Botrytis cinerea = assay: Test C: tomato Botrytis on tomato seedlings, sprayed the day before inoculation, visual disease rating
# How it was run: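 Rate: 200 ppm sprayed to run-off, corresponding to 500 g/ha; flagged values used 40 ppm. Vehicle was aqueous acetone (1:1) plus 250 ppm surfactant, compounds predissolved in acetone at 3% of volume. Plants were tomato seedlings.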
# Alternaria solani = assay: Test D: tomato early blight, sprayed the day before inoculation, visual disease rating
# How it was run: (§1)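 Plants received a run-off spray at 200 ppm (equivalent to 500 g/ha) or, for starred values, 40 ppm. Formulation used acetone at 3% of volume in a 50/50 acetone/water mix carrying 250 ppm Trem® 014.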
# Septoria nodorum = assay: Test F: wheat glume blotch on wheat seedlings, sprayed the day before inoculation, visual disease rating
# How it was run: as §1
# Septoria tritici = assay: Test G: wheat leaf blotch on wheat seedlings, sprayed the day before inoculation, visual disease rating
# How it was run: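 Seedlings receive a protective spray of test suspension in acetone/water carrying 250 ppm surfactant, mostly at 200 ppm and at 40 ppm where marked. They are inoculated the next day, kept saturated at 24° C for 48 h, then held at 20° C for 19 days before visual scoring.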
# [1] = tested on: Puccinia recondita f. sp. tritici; assay: Test H: wheat leaf rust, test suspension sprayed after inoculation of wheat seedlings, visual disease rating
# How it was run: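 Wheat seedlings inoculated with P. recondita spores, held 24 h saturated at 20 °C, then 2 days in growth chamber at 20 °C; compound suspension (acetone/water with Trem 014) sprayed to run-off afterwards. Rated visually; 200 ppm (≈500 g/ha) unless marked *, which denotes 40 ppm.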
# [2] = tested on: Puccinia recondita f. sp. tritici; assay: Test I: wheat leaf rust on wheat seedlings, sprayed the day before inoculation, visual disease rating
# How it was run: as §1
# [3] = tested on: Erysiphe graminis f. sp. tritici; assay: Test J: wheat powdery mildew on wheat seedlings, sprayed the day before inoculation, visual disease rating
# How it was run: as §1
# [4] = 200 ppm, 0 = no control relative to controls
# [5] = 40 ppm (marked *), 0 = no control
smiles,measurement,setting,value
Cc1nc(Cl)n(-c2ccc(Cl)c(F)c2)c1-c1scnc1Cl [compound 380],Test C disease control rating,Botrytis cinerea; [4],100%
same,Test D disease control rating,Alternaria solani; [4],91%
same,Test F disease control rating,Septoria nodorum; [4],0%
same,Test G disease control rating,Septoria tritici; [4],91%
same,Test H disease control rating,[1]; [4],0%
same,Test I disease control rating,[2]; [4],99%
same,Test J disease control rating,[3]; [4],99%
Cc1nc(C)n(-c2c(F)cc(F)cc2F)c1-c1ccc(Cl)cc1 [compound 308],Test C disease control rating,Botrytis cinerea; [5],99* %
same,Test D disease control rating,Alternaria solani; [5],100* %
same,Test F disease control rating,Septoria nodorum; [5],0* %
same,Test G disease control rating,Septoria tritici; [5],88* %
same,Test H disease control rating,[1]; [5],11* %
same,Test I disease control rating,[2]; [5],41* %
same,Test J disease control rating,[3]; [5],0* %
CC(=O)Nc1ccc(-n2c(Br)nc(Cl)c2-c2c(F)cccc2F)cc1 [compound 643],Test C disease control rating,Botrytis cinerea; 40 ppm (marked *),0* %
same,Test D disease control rating,Alternaria solani; 40 ppm (marked *),0* %
same,Test F disease control rating,Septoria nodorum; 40 ppm (marked *),0* %
same,Test G disease control rating,Septoria tritici; 40 ppm (marked *),87* %
same,Test H disease control rating,[1]; 40 ppm (marked *),0* %
same,Test I disease control rating,[2]; 40 ppm (marked *),52* %
same,Test J disease control rating,[3]; 40 ppm (marked *),0* %
Clc1ccc(-c2c(Cl)ncn2Cc2cccc(Cl)c2)cc1 [compound 272],Test C disease control rating,"Botrytis cinerea; 200 ppm, 0 = no control",64%
same,Test D disease control rating,"Alternaria solani; 200 ppm, 0 = no control",0%
same,Test F disease control rating,"Septoria nodorum; 200 ppm, 0 = no control",0%
same,Test G disease control rating,"Septoria tritici; 200 ppm, 0 = no control",91%
same,Test H disease control rating,"[1]; 200 ppm, 0 = no control",17%
same,Test I disease control rating,"[2]; 200 ppm, 0 = no control",55%
same,Test J disease control rating,"[3]; 200 ppm, 0 = no control",0%
Fc1cc(-n2c(Cl)nc(Br)c2-c2c(F)ccc(F)c2Cl)ccc1Cl [compound 463],Test C disease control rating,Botrytis cinerea; 40 ppm (marked *),99* %
same,Test D disease control rating,Alternaria solani; 40 ppm (marked *),99* %
same,Test F disease control rating,Septoria nodorum; 40 ppm (marked *),0* %
same,Test G disease control rating,Septoria tritici; 40 ppm (marked *),95* %
same,Test H disease control rating,[1]; 40 ppm (marked *),0* %
same,Test I disease control rating,[2]; 40 ppm (marked *),100* %
same,Test J disease control rating,[3]; 40 ppm (marked *),99* %
COc1cc(F)c(-c2c(Cl)nc(Br)n2-c2cccc(Cl)c2)c(F)c1 [compound 483],Test C disease control rating,Botrytis cinerea; [4],100%
same,Test D disease control rating,Alternaria solani; [4],99%
same,Test F disease control rating,Septoria nodorum; [4],0%
same,Test G disease control rating,Septoria tritici; [4],94%
same,Test H disease control rating,[1]; [4],32%
same,Test I disease control rating,[2]; [4],98%
same,Test J disease control rating,[3]; [4],100%
COc1cc(F)c(-c2c(Cl)nc(Cl)n2Cc2ccc(Cl)cc2)c(F)c1 [compound 284],Test C disease control rating,"Botrytis cinerea; 200 ppm, 0 = no control",100%
same,Test D disease control rating,"Alternaria solani; 200 ppm, 0 = no control",99%
same,Test F disease control rating,"Septoria nodorum; 200 ppm, 0 = no control",92%
same,Test G disease control rating,"Septoria tritici; 200 ppm, 0 = no control",95%
same,Test H disease control rating,"[1]; 200 ppm, 0 = no control",6%
same,Test I disease control rating,"[2]; 200 ppm, 0 = no control",99%
same,Test J disease control rating,"[3]; 200 ppm, 0 = no control",100%
COc1ccc(-c2c(Cl)nc(Cl)n2-c2ccc(Cl)c(F)c2)cn1 [compound 434],Test C disease control rating,Botrytis cinerea; [4],96%
same,Test D disease control rating,Alternaria solani; [4],9%
same,Test F disease control rating,Septoria nodorum; [4],0%
same,Test G disease control rating,Septoria tritici; [4],99%
same,Test H disease control rating,[1]; [4],0%
same,Test I disease control rating,[2]; [4],68%
same,Test J disease control rating,[3]; [4],76%
Cc1nc(Cl)n(-c2ccc(Cl)cc2)c1-c1c(F)ccc(F)c1F [compound 412],Test C disease control rating,Botrytis cinerea; [5],100* %
same,Test D disease control rating,Alternaria solani; [5],100* %
same,Test F disease control rating,Septoria nodorum; [5],0* %
same,Test G disease control rating,Septoria tritici; [5],99* %
same,Test H disease control rating,[1]; [5],0* %
same,Test I disease control rating,[2]; [5],74* %
same,Test J disease control rating,[3]; [5],99* %
Cc1nc(Cl)c(-c2c(F)cccc2F)n1-c1ccc2ccccc2c1 [compound 303],Test C disease control rating,Botrytis cinerea; [5],100* %
same,Test D disease control rating,Alternaria solani; [5],99* %
same,Test F disease control rating,Septoria nodorum; [5],98* %
same,Test G disease control rating,Septoria tritici; [5],96* %
same,Test H disease control rating,[1]; [5],0* %
same,Test I disease control rating,[2]; [5],74* %
same,Test J disease control rating,[3]; [5],81* %
CCOc1ccc(F)c(-c2c(Cl)nc(Cl)n2-c2ccc(Cl)cc2)c1F [compound 664],Test C disease control rating,Botrytis cinerea; [4],100%
same,Test D disease control rating,Alternaria solani; [4],99%
same,Test F disease control rating,Septoria nodorum; [4],96%
same,Test G disease control rating,Septoria tritici; [4],99%
same,Test H disease control rating,[1]; [4],46%
same,Test I disease control rating,[2]; [4],97%
same,Test J disease control rating,[3]; [4],100%
